Experimental findings from patent US4014999A, “Halo-steroidal thioketals for treating inflammation” (Ortho Pharmaceutical Corporation, priority 1976, dated 1977) are described below.

This experiment deals with left hind paw inflammation in rats with adjuvant arthritis. Put plainly: Therapeutic Treatment of Adjuvant Arthritis in Rats (left hind paw inflammation). In kind it is in vivo, Carworth Wistar (Lewis) rats. The protocol:
Carworth Wistar (Lewis) rats weighing approximately 200 grams are anesthetized with ether, weighed and their hind paws measured by means of a mercury displacement method. The left hind paw is injected intradermally with heat-killed Mycobacterium tuberculosis in white mineral oil. Measurements of body weight and paw volume are obtained on days 2, 5, 10, 15, 20 and 25. Therapeutic treatment is started on day 15.
Following the injection with Mycobacterium tuberculosis, a primary inflammation develops immediately in the injected paw. Secondary inflammation of the joints of the other legs and feet, nodules on the tail and red spots on the ears develop about day 10-15. The object of the test is to determine the anti-inflammatory effects of the drug treatments.
Groups of rats (five rats/group) are treated as follows: One group receives no Mycobacterium tuberculosis and is the negative control group. One group receives Mycobacterium tuberculosis but no anti-inflammatory drug and is the positive control group. Other groups receive Mycobacterium tuberculosis and either oral or topical test compounds or standard anti-inflammatory agents beginning on day 15 and are considered experimental groups. Experimental anti-inflammatory and standard anti-inflammatory compounds are administered either once every five days, i.e., after grading on days 15 and 20, or once/day on days 15-24.
In the topical studies a measured amount of drug is mixed into about 0.5 ml of SILASTIC* Medical Adhesive (or other appropriate vehicle) and applied to cover the left hind paw. Rats so treated are housed individually to eliminate the removal of the medication by another rat. The following, Tables 1 and 2 illustrate the anti-inflammatory potency and efficacy of the oral and topical treatments.

Setting [1] is: oral, once per day, 0.00375 mg/kg.
Where [2] appears, read: oral, once per day, 0.00750 mg/kg.
Setting [3] is: oral, once per day, 0.01500 mg/kg.
Where [4] appears, read: oral, once per day, 0.03000 mg/kg.
The mark [5] stands for this setting: oral, once per day, 0.06250 mg/kg.
Setting [6] is: oral, once per day, 0.12500 mg/kg.

On to `CC1(C)O[C@@H]2C[C@H]3[C@@H]4C[C@H](F)C5=CC6(C=C[C@]5(C)[C@@]4(F)[C@@H](O)C[C@]3(C)[C@]2(C(=O)CO)O1)SCCS6` [Compound A, 6α,9-difluoropregna-1,4-diene-11β,16α,17,21-tetrol-3,20-dione-3-ethylenedithioketal-16,17-acetonide], for which the “Percent Inhibition of Left Hind Paw Inflammation” value (from here on “Percent Inhibition”) runs as follows: (oral, once every five days, 0.075 mg/kg/5 days) 14.7%; (oral, once every five days, 0.150 mg/kg/5 days) 15.3%; (oral, once every five days, 0.300 mg/kg/5 days) 18.1%; (oral, once every five days, 0.625 mg/kg/5 days) 29.0%; (oral, once every five days, 1.250 mg/kg/5 days) 35.0%; (oral, once every five days, 2.500 mg/kg/5 days) 44.3%. Also, the “Percent Inhibition” value by setting is: under setting [1], 5%; under setting [2], 9%; under setting [3], 43%; under setting [4], 34%; under setting [5], 60%; under setting [6], 83%. The “Percent Inhibition” value amounted to 95% (oral, once per day, 0.25000 mg/kg); 31.1% (topical (in SILASTIC Medical Adhesive), once every five days, 0.300 mg/kg/5 days); 52.6% (topical (in SILASTIC Medical Adhesive), once every five days, 0.625 mg/kg/5 days); 57.5% (topical (in SILASTIC Medical Adhesive), once every five days, 1.250 mg/kg/5 days); 64.5% (topical (in SILASTIC Medical Adhesive), once every five days, 2.500 mg/kg/5 days).

Take `CC1(C)O[C@@H]2C[C@H]3[C@@H]4C[C@H](F)C5=CC(=O)C=C[C@]5(C)[C@@]4(F)[C@@H](O)C[C@]3(C)[C@]2(C(=O)CO)O1` [Compound B, fluocinolone acetonide, reference compound]: the “Percent Inhibition” value runs as follows: under setting [1], 19%; under setting [2], 15%; under setting [3], 32%; under setting [4], 66%; under setting [5], 76%; under setting [6], 64%.
